Like-named read-outs stand apart in the source and are kept apart here.
Tests used:
[1] = Pharmacokinetics in rats after single IV and PO administration (LC-MS/MS); type: in vivo, male SD rats; settings: SD rats, comparative compounds; for PO F: PO 10 mg/kg vs IV 1 mg/kg according to Table 3; for AUC(0-t) / clearance / Cmax / Vd / half-life: male, rat, plasma; for clearance: read-out: IV CL; for Vd: read-out: IV Vss
Description: • 1. Objective: This study aimed to characterize the pharmacokinetic properties of selected compounds from the examples of the present invention in SD rats following single intravenous (IV) injection and oral (PO) administration using LC-MS/MS methodology. • 2. Experimental Materials: Test compounds were prepared according to the examples of the present invention; male SD rats were obtained from the Laboratory Animal Department of Shanghai Institute of Planned Parenthood Research (License No. SCXK(Shanghai)2018-0006) or Shanghai Jihui Laboratory Animal Breeding Co., Ltd. (License No. SCXK(Shanghai)2022-0009). • 3. Experimental Methods: Preparation of 0.5% methylcellulose: 5 g of methylcellulose was weighed and dissolved in 1000 mL of purified water. Preparation of 0.5% methylcellulose (pH = 5.03): 5 g of methylcellulose was weighed and dissolved in 1000 mL of purified water, and the pH was adjusted to 5.03 with 100 mM citric acid.
Preparation of oral formulations: The required amount of test compound was weighed and dissolved in 0.5% methylcellulose solution or 0.5% methylcellulose (pH = 5.03) to obtain a suspension or solution at 1 or 3 mg/mL.
Preparation of intravenous injection formulations: The required amount of test compound (EB229, EB300, EB341, EB342) was weighed and dissolved in 0.5 mL dimethyl sulfoxide to prepare a 4 mg/mL solution. To 0.25 mL of this solution, 0.5 mL of polyethylene glycol 15-hydroxystearate (Solutol) and 4.25 mL of normal saline were added to obtain a 0.2 mg/mL solution. For EB834, 6 mg was weighed and dissolved in 0.1 mL dimethyl sulfoxide, followed by addition of 0.2 mL polyethylene glycol 15-hydroxystearate (Solutol) and 1.7 mL normal saline to obtain a 3 mg/mL solution.
Dosing: Male SD rats were fasted overnight prior to oral (PO) administration; fasting was not required for the single intravenous (IV) injection group. Food was provided 4 hours post-dosing.
Sample Collection: Blood was collected from the jugular vein or other suitable veins, with 0.2 mL collected at each time point. Samples were placed in tubes containing dipotassium ethylenediaminetetraacetate and kept on ice prior to centrifugation. Within 1 hour of blood collection, samples were centrifuged at 6800 × g for 6 minutes at 2-8°C and stored at -80°C.

[2] = system: MV-4-11 cells; experiment: Antiproliferative activity against MV-4-11 cells (CTG method, 72 h); type: cell-based; settings: Homo sapiens, MV4-11, 72 hours incubation, CellTiter-Glo
From the text: • 1. Experimental Principle: MV-4-11 is a human leukemia cell line harboring MLL translocation and expressing the MLL fusion protein MLL-AF4. […] Experimental Materials: CellTiter-Glo was purchased from Promega (Cat. #G7571); IMDM medium was purchased from Gibco (Cat. #12440061); fetal bovine serum was purchased from Excell (Cat. #FND500); dimethyl sulfoxide (DMSO) was purchased from Sigma (Cat. #D2650); 384-well cell culture plates were purchased from Corning (Cat. #3756); automated cell counter was obtained from Life Technologies (Model: Countess II); microplate reader was obtained from PerkinElmer (Model: EnVision Multilabel Reader). • 3. Experimental Methods: Cells in logarithmic growth phase were resuspended in growth medium (IMDM + 10% FBS) and diluted to the target density (50,000/mL). The cell suspension was seeded into 384-well plates at 50 µL per well and incubated overnight at 37°C in a 5% CO2 incubator.
Test compounds were dissolved in DMSO to prepare 10 mM stock solutions. The stock solutions were first diluted to 2 mmol/L with DMSO, followed by 3-fold serial dilutions to generate 10 concentrations. From each concentration, 5.5 µL was diluted with 94.5 µL growth medium. The diluted solutions were then added to the 384-well plates containing seeded cells at 5 µL per well.
Cells treated with test compounds were incubated at 37°C in a 5% CO2 incubator for 72 hours. The 384-well plates were equilibrated at room temperature, and 15 µL of CellTiter-Glo reagent was added to each well. The plates were mixed on a vortex mixer for 2 minutes and incubated at room temperature for 60 minutes. Luminescence values were read using the EnVision Multilabel Reader, and IC50 values were calculated using GraphPad Prism 5.0 software.

[3] = system: HL-60 cells; experiment: Antiproliferative activity, CellTiter-Glo, 7 days (Test Example 2), HL-60; type: cell-based; settings: Homo sapiens, 168 h, HL-60 cells (no Menin-MLL fusion), 7 days incubation
From the text: (§1) [0134] 1. Experimental Principle: MV-4-11, Molm-13, and OCI-AML-3 cells are human hematologic tumor cell lines harboring the Menin-MLL fusion. HL-60 is a wild-type human hematologic tumor cell line without Menin-MLL fusion. […] 2. Experimental Materials: MV-4-11, Molm-13, OCI-AML-3, and HL-60 cells were all purchased from Cobioer; CellTiter-Glo® was purchased from Promega (Cat. #G7571); RPMI-1640 was purchased from Viva Cell (Cat. #C3010-0500); IMDM was purchased from Viva Cell (Cat. #C3040-0500); fetal bovine serum (FBS) was purchased from Biosera (Cat. #FB-1058/500); penicillin-streptomycin was purchased from BasalMedia (Cat. #S110JV); 0.25% Trypsin-EDTA was purchased from BasalMedia (Cat. #S310KJ); dimethyl sulfoxide (DMSO) was purchased from Sinopharm (Cat. #30072418); 96-well plates were purchased from Corning (Cat. #3610); incubator was obtained from PHCbi (Model: MCO-18AC); inverted microscope was obtained from Mingmei (Cat. #MI52-0); automated cell counter was obtained from BodBoge (Model: JSY-SC-031N); microplate reader was obtained from PerkinElmer (Model: Envision); data processing software: GraphPad Prism 8.0. 3. Experimental Methods: Four cell lines in logarithmic growth phase were resuspended in their respective growth media (MV-4-11: IMDM + 20% FBS; Molm-13: RPMI-1640 + 20% FBS; OCI-AML-3: RPMI-1640 + 20% FBS; HL-60: RPMI-1640 + 10% FBS) and diluted to target densities (12,500, 6,250, 12,500, and 12,500/mL, respectively). The cell suspensions were seeded into 96-well plates at 80 µL per well and incubated overnight at 37°C in a 5% CO2 incubator. Culture medium served as the background control. Test compounds were dissolved in DMSO to prepare 10 mmol/L stock solutions. The stock solutions were first diluted to 2 mmol/L with DMSO, followed by 4-fold serial dilutions to generate 10 concentrations. From each concentration, 2 µL was diluted with 78 µL growth medium. […] After incubation at room temperature for 10 minutes, luminescence values were read using the EnVision microplate reader, and IC50 values were calculated using GraphPad Prism 8.0 software. […]

[4] = system: MV-4-11 cells; experiment: Antiproliferative activity, CellTiter-Glo, 7 days (Test Example 2), MV-4-11; type: cell-based; settings: Homo sapiens, MV4-11, 168 h, 7 days incubation
From the text: as §1

[5] = IV, dose 1 mg/kg according to Table 3, read-out: IV AUC(0-t)
[6] = IV, dose 1 mg/kg according to Table 3
[7] = IV, dose 1 mg/kg according to Table 3, read-out: IV Cmax
[8] = IV, dose 1 mg/kg according to Table 3, read-out: IV t1/2 (converted)
[9] = PO, dose 10 mg/kg in 0.5% MC according to Table 3, read-out: PO AUC(0-t)
[10] = PO, dose 10 mg/kg in 0.5% MC according to Table 3, read-out: PO Cmax
[11] = PO, dose 10 mg/kg in 0.5% MC according to Table 3, read-out: PO t1/2 (converted)

Structure (SMILES) | PO F [1] [%] | AUC(0-t) [1, 5] [ng·h/mL] | clearance [1, 6] [mL/min/kg] | Cmax [1, 7] [ng/mL] | Vd [1, 6] [L/kg] | half-life [1, 8] [h] | AUC(0-t) [1, 9] [ng·h/mL] | Cmax [1, 10] [ng/mL] | half-life [1, 11] [h] | IC50 [2] [nM] | IC50 [3] [nM] | IC50 [4] [nM]
CCN(C(=O)c1cc(F)ccc1N1CCN(C2CCN(Cc3ccc4[nH]c(C#N)cc4c3C)CC2)c2ncncc21)C(C)C [Comparative Comp. 7] | 3.7 | 264 | 62.1 | 152 | 6.62 | 1.55 | 119 | 27 | 2.29 | – | – | –
CCN(C(=O)c1cc(F)ccc1N1CCN(C2CCN(Cc3ccc4c(cc(C#N)n4C[C@@H]4CCNC4)c3C)CC2)c2ncncc21)C(C)C [Comparative Comp. 8] | 13.85 | 85.7 | 185 | 271 | 9.61 | 2.06 | 119 | 41.9 | 1.8 | – | – | –
CCN(C(=O)c1cc(F)ccc1N1CCN(C2CCN(Cc3ccc4c(cc(C#N)n4CC4CNC4)c3C)CC2)c2ncncc21)C(C)C [Comparative Comp. 9] | 13.50 | 169 | 92.4 | 376 | 30.6 | 5.98 | 228 | 101 | 5.12 | – | – | –
CCN(C(=O)c1cc(F)ccc1N1CCN(C2CCN(Cc3ccc4c(cc(C#N)n4CC4COC4)c3C)CC2)c2ncncc21)C(C)C [Comparative Comp. 10] | 49.68 | 16.9 | 947 | 16.2 | 59.4 | 0.82 | 83.8 | 33.3 | 1.26 | – | – | –
CCN(C(=O)c1cc(F)ccc1N1CCN(C2CCN(C[C@H]3CC[C@H](NS(C)(=O)=O)CC3)C2)c2ncncc21)C(C)C (stereo partly shown) [Comparative Compound 1] | – | – | – | – | – | – | – | – | – | 293 | – | –
CCN(C(=O)c1cc(F)ccc1N1CCN(C2CCN(Cc3ccc4[nH]c(C#N)cc4c3C)C2)c2ncncc21)C(C)C (stereo not shown) [Comparative Compound 2] | – | – | – | – | – | – | – | – | – | 800 | – | –
CNc1nc(NC2CCN(Cc3ccc4c(cc(C#N)n4C[C@H](C)N4CCN(S(C)(=O)=O)CC4)c3C)CC2)c2cc(CC(F)(F)F)sc2n1 [KO539] | – | – | – | – | – | – | – | – | – | – | 2050 | 14.4
